Target: T1, PKC-λ/ι (PKC-ι) (Homo sapiens, UniProt P41743)
T1 sequence (P41743 2-596): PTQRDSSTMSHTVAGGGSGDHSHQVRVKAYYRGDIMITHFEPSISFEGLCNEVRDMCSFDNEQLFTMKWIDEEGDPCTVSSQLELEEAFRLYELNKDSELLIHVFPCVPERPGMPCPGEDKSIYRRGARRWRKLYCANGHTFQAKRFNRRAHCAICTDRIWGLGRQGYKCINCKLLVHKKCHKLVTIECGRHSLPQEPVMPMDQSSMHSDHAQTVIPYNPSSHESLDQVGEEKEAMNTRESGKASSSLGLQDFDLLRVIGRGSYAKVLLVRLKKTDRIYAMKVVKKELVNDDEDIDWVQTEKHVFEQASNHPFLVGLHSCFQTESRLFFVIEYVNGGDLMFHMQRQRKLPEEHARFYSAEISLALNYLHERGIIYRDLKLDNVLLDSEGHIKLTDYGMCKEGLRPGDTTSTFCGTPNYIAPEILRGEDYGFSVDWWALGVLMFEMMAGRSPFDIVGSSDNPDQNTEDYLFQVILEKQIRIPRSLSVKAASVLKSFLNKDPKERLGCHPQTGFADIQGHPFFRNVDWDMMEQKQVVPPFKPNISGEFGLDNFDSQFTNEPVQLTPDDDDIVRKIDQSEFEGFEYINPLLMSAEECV
Type: cell-based

IC50: 1 to 10 nM
SMILES: NC(=O)c1ncn([C@@H]2C[C@H](COP(=O)(O)O)[C@@H](O)[C@H]2O)c1N [ICAPP, 1H-imidazole-4-carboxamide,5-amino]-[2,3-dihydroxy-4-[(phosphono-oxy)methyl]cyclopentane-[1R-(1a,2b,3b,4a)]]
